# Assay results from PubChem BioAssay (NCI).
#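 Cells were grown in 96-well plates and exposed to each compound for 48 hours at five concentrations; endpoints were interpolated linearly between bracketing concentrations, or set to the highest concentration if not reached. Abbreviation: GI50, concentration required for 50% inhibition of growth. The concentration for full growth arrest is given as TGI.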
# Experiments:
# Assay in all cases: NCI-60 cell line screen, 48 h
# OVCAR-3 ovarian = tested on: OVCAR-3 ovarian
# SF-268 CNS = tested on: SF-268 CNS
# HOP-62 NSCLC = tested on: HOP-62 NSCLC
# SW-620 colon = tested on: SW-620 colon
# ACHN renal = tested on: ACHN renal
# KM12 colon = tested on: KM12 colon
# SK-OV-3 ovarian = tested on: SK-OV-3 ovarian
# RXF 393 renal = tested on: RXF 393 renal
# NCI-H460 lung = tested on: NCI-H460 lung
# HOP-92 NSCLC = tested on: HOP-92 NSCLC
# COLO 205 colon = tested on: COLO 205 colon
# MOLT-4 leukemia = tested on: MOLT-4 leukemia
# DU-145 prostate = tested on: DU-145 prostate
# HL-60(TB) leukemia = tested on: HL-60(TB) leukemia
# CCRF-CEM leukemia = tested on: CCRF-CEM leukemia
# U251 CNS = tested on: U251 CNS
# RPMI-8226 leukemia = tested on: RPMI-8226 leukemia
# A549 NSCLC = tested on: A549 NSCLC
# HCT-116 colon = tested on: HCT-116 colon
# HS 578T breast = tested on: HS 578T breast
# UO-31 renal = tested on: UO-31 renal
# NCI-H226 lung = tested on: NCI-H226 lung
# PC-3 prostate = tested on: PC-3 prostate
# OVCAR-8 ovarian = tested on: OVCAR-8 ovarian
# SNB-75 CNS = tested on: SNB-75 CNS
# K-562 leukemia = tested on: K-562 leukemia
# MDA-MB-435 = tested on: MDA-MB-435
# OVCAR-5 ovarian = tested on: OVCAR-5 ovarian
# EKVX NSCLC = tested on: EKVX NSCLC
# UACC-257 melanoma = tested on: UACC-257 melanoma
# NCI-H23 lung = tested on: NCI-H23 lung
# TK-10 renal = tested on: TK-10 renal
# HT29 colon = tested on: HT29 colon
# MDA-MB-231 breast = tested on: MDA-MB-231 breast
# IGROV1 ovarian = tested on: IGROV1 ovarian
# HCC-2998 colon = tested on: HCC-2998 colon
# NCI/ADR-RES ovarian = tested on: NCI/ADR-RES ovarian
# SR leukemia = tested on: SR leukemia
# NCI-H522 lung = tested on: NCI-H522 lung
# MALME-3M melanoma = tested on: MALME-3M melanoma
# CAKI-1 renal = tested on: CAKI-1 renal
# SK-MEL-2 melanoma = tested on: SK-MEL-2 melanoma
# SK-MEL-28 melanoma = tested on: SK-MEL-28 melanoma
# LOX IMVI melanoma = tested on: LOX IMVI melanoma
# MCF7 breast = tested on: MCF7 breast
# SF-539 CNS = tested on: SF-539 CNS
# SF-295 CNS = tested on: SF-295 CNS
# SK-MEL-5 melanoma = tested on: SK-MEL-5 melanoma
# HCT-15 colon = tested on: HCT-15 colon
smiles,measurement,setting,value
C/C(=C\C(=N\N=C(N)N)c1ccc(Cl)cc1)c1ccc(Cl)cc1,GI50,OVCAR-3 ovarian,1720 nM
same,TGI,OVCAR-3 ovarian,3210 nM
same,GI50,SF-268 CNS,1370 nM
same,TGI,SF-268 CNS,3060 nM
same,GI50,HOP-62 NSCLC,45.4 nM
same,TGI,HOP-62 NSCLC,1620 nM
same,GI50,SW-620 colon,470 nM
same,TGI,SW-620 colon,1730 nM
same,GI50,ACHN renal,42.4 nM
same,TGI,ACHN renal,1510 nM
same,GI50,KM12 colon,1350 nM
same,TGI,KM12 colon,2690 nM
same,GI50,SK-OV-3 ovarian,1690 nM
same,TGI,SK-OV-3 ovarian,3080 nM
same,GI50,RXF 393 renal,1710 nM
same,TGI,RXF 393 renal,3100 nM
same,GI50,NCI-H460 lung,1300 nM
same,TGI,NCI-H460 lung,2660 nM
same,GI50,HOP-92 NSCLC,918 nM
same,TGI,HOP-92 NSCLC,2310 nM
same,GI50,COLO 205 colon,19.8 nM
same,TGI,COLO 205 colon,34.3 nM
same,GI50,MOLT-4 leukemia,276 nM
same,TGI,MOLT-4 leukemia,950 nM
same,GI50,DU-145 prostate,146 nM
same,TGI,DU-145 prostate,1500 nM
same,GI50,HL-60(TB) leukemia,2030 nM
same,TGI,HL-60(TB) leukemia,3780 nM
same,GI50,CCRF-CEM leukemia,112 nM
same,TGI,CCRF-CEM leukemia,1940 nM
same,GI50,U251 CNS,924 nM
same,TGI,U251 CNS,2140 nM
same,GI50,RPMI-8226 leukemia,2190 nM
same,TGI,RPMI-8226 leukemia,5140 nM
same,GI50,A549 NSCLC,424 nM
same,TGI,A549 NSCLC,1560 nM
same,GI50,HCT-116 colon,251 nM
same,TGI,HCT-116 colon,712 nM
same,GI50,HS 578T breast,2080 nM
same,TGI,HS 578T breast,4550 nM
same,GI50,UO-31 renal,1440 nM
same,TGI,UO-31 renal,2850 nM
same,GI50,NCI-H226 lung,2170 nM
same,TGI,NCI-H226 lung,4750 nM
same,GI50,PC-3 prostate,1290 nM
same,TGI,PC-3 prostate,2690 nM
same,GI50,OVCAR-8 ovarian,1180 nM
same,TGI,OVCAR-8 ovarian,2900 nM
same,GI50,SNB-75 CNS,1480 nM
same,TGI,SNB-75 CNS,2910 nM
CCCCCCCCCOc1c(OC)cc(C2CC(=O)Nc3c2c(C)nn3-c2nc3ccccc3[nH]2)cc1OC (configuration not stated),GI50,K-562 leukemia,1810 nM
same,TGI,K-562 leukemia,> 50000 nM
same,GI50,MDA-MB-435,982 nM
same,TGI,MDA-MB-435,1990 nM
same,GI50,OVCAR-5 ovarian,881 nM
same,TGI,OVCAR-5 ovarian,1860 nM
same,GI50,EKVX NSCLC,981 nM
same,TGI,EKVX NSCLC,2320 nM
same,GI50,OVCAR-3 ovarian,1180 nM
same,TGI,OVCAR-3 ovarian,2890 nM
same,GI50,SF-268 CNS,1040 nM
same,TGI,SF-268 CNS,2570 nM
same,GI50,UACC-257 melanoma,1470 nM
same,TGI,UACC-257 melanoma,> 50000 nM
same,GI50,NCI-H23 lung,904 nM
same,TGI,NCI-H23 lung,1830 nM
same,GI50,TK-10 renal,1270 nM
same,TGI,TK-10 renal,3830 nM
same,GI50,HT29 colon,1640 nM
same,TGI,HT29 colon,> 50000 nM
same,GI50,HOP-62 NSCLC,974 nM
same,TGI,HOP-62 NSCLC,2110 nM
same,GI50,MDA-MB-231 breast,975 nM
same,TGI,MDA-MB-231 breast,1870 nM
same,GI50,IGROV1 ovarian,890 nM
same,TGI,IGROV1 ovarian,1770 nM
same,GI50,SW-620 colon,1000 nM
same,TGI,SW-620 colon,2170 nM
same,GI50,HCC-2998 colon,1620 nM
same,TGI,HCC-2998 colon,> 50000 nM
same,GI50,ACHN renal,1130 nM
same,TGI,ACHN renal,2790 nM
same,GI50,NCI/ADR-RES ovarian,1310 nM
same,TGI,NCI/ADR-RES ovarian,3740 nM
same,GI50,KM12 colon,1170 nM
same,TGI,KM12 colon,3080 nM
same,GI50,SK-OV-3 ovarian,1060 nM
same,TGI,SK-OV-3 ovarian,2090 nM
same,GI50,NCI-H460 lung,928 nM
same,TGI,NCI-H460 lung,1800 nM
same,GI50,HOP-92 NSCLC,955 nM
same,TGI,HOP-92 NSCLC,2460 nM
same,GI50,SR leukemia,1570 nM
same,TGI,SR leukemia,6510 nM
same,GI50,NCI-H522 lung,1010 nM
same,TGI,NCI-H522 lung,2400 nM
same,GI50,MALME-3M melanoma,914 nM
same,TGI,MALME-3M melanoma,1920 nM
same,GI50,COLO 205 colon,1730 nM
same,TGI,COLO 205 colon,> 50000 nM
same,GI50,MOLT-4 leukemia,1340 nM
same,TGI,MOLT-4 leukemia,3250 nM
same,GI50,DU-145 prostate,1790 nM
same,TGI,DU-145 prostate,> 50000 nM
same,GI50,HL-60(TB) leukemia,1580 nM
same,TGI,HL-60(TB) leukemia,4450 nM
same,GI50,CCRF-CEM leukemia,1720 nM
same,TGI,CCRF-CEM leukemia,> 50000 nM
same,GI50,RPMI-8226 leukemia,1460 nM
same,TGI,RPMI-8226 leukemia,4290 nM
same,GI50,A549 NSCLC,1080 nM
same,TGI,A549 NSCLC,2350 nM
same,GI50,HCT-116 colon,1780 nM
same,TGI,HCT-116 colon,> 50000 nM
same,GI50,CAKI-1 renal,917 nM
same,TGI,CAKI-1 renal,1810 nM
same,GI50,SK-MEL-2 melanoma,1410 nM
same,TGI,SK-MEL-2 melanoma,4310 nM
same,GI50,HS 578T breast,622 nM
same,TGI,HS 578T breast,1970 nM
same,GI50,SK-MEL-28 melanoma,897 nM
same,TGI,SK-MEL-28 melanoma,1810 nM
same,GI50,LOX IMVI melanoma,913 nM
same,TGI,LOX IMVI melanoma,1670 nM
same,GI50,MCF7 breast,1590 nM
same,TGI,MCF7 breast,> 50000 nM
same,GI50,UO-31 renal,679 nM
same,TGI,UO-31 renal,1320 nM
same,GI50,SF-539 CNS,851 nM
same,TGI,SF-539 CNS,1650 nM
same,GI50,NCI-H226 lung,939 nM
same,TGI,NCI-H226 lung,1840 nM
same,GI50,SF-295 CNS,816 nM
same,TGI,SF-295 CNS,1740 nM
same,GI50,SK-MEL-5 melanoma,871 nM
same,TGI,SK-MEL-5 melanoma,1560 nM
same,GI50,HCT-15 colon,1050 nM
same,TGI,HCT-15 colon,2460 nM
same,GI50,OVCAR-8 ovarian,1710 nM
same,TGI,OVCAR-8 ovarian,7280 nM
same,GI50,SNB-75 CNS,670 nM
same,TGI,SNB-75 CNS,1550 nM
